According to PMC6156508, “GA-Hecate antiviral properties on HCV whole cycle represent a new antiviral class and open the door for the development of broad spectrum antivirals” (Scientific Reports, 2018):
Where no end group is shown, it is not given here.

Experiments:
[1] = tested on: HCV subgenomic replicon SGR-Feo-JFH-1 (genotype 2a); test: HCV subgenomic replicon replication, luciferase assay (genotype 2a); type: cell-based, hepatitis C virus; settings: for SI (selectivity index), ratio CC50/EC50 / inhibition of HCV replication at the maximum safe concentration: 48 h, genotype 2a replicon; for EC50: Huh-7.5 harbouring SGR-Feo-JFH-1 genotype 2a, 48 h treatment, 2.5-20 μM, luciferase, triplicate in three independent assays, read-out: EC50 (50% effective concentration for HCV); for inhibition of HCV replication at the maximum safe concentration: at each peptide's maximum safe concentration (Hecate 10 μM; Lys-, Glu-, Acetyl-Hecate 5 μM)
Description: (§1) Figure 2 Hecate and its derivative-peptide effects on subgenomic HCV genotype 2a replication and hepatotoxicity. (A) Hecate. (B) Lys- Hecate. (C) GA-Hecate. (D) GA2-Hecate. (E) Acetyl-Hecate. (F) Glu-Hecate. Luciferase assays report HCV replication and MTT assays report the viability of Huh-7.5 cells harboring SGR-JFH-1 Feo under peptide treatment. Water was used as a negative control of virus replication inhibition and cell death (Control (−)), and Cyclosporine A was used as a positive control for virus replication inhibition (Control (+)). Red dotted lines represent the arbitrary threshold of 80% cell viability, and blue dotted lines represent the maximum inhibition presented by Hecate at the maximum safe concentration. Bars represent triplicates of the three independent assays. ***P < 0.01 vs control (−).
Cell lines harboring subgenomic or genomic replicons were seeded at 5 × 10^3 cells /well on 96-well plates and the compounds were added 24 h post-seeding, in a concentration range between 2.5–20 μM. After 48 h of treatment, the cells were disrupted with 30 μL of passive lysis buffer (Promega, Madison, WI, USA), and luciferase substrate (Promega, Madison, WI, USA) was automatically added to each sample. Luciferase activity was measured using a luminometer (FLUOstar Omega/BMG LABTECH, Offenburg, BW, DE). The same assays were performed in Huh-7.5 cell lines harboring SGR-JFH1 Feo, S52/SG-neo or FL-J6/JFH-50C19Rluc2AUbi. Cyclosporine A (Sigma-Aldrich) at 1 μM was used as positive control of viral replication inhibition and dH2O as negative control.
(§2) GA-Hecate toxicity and viral inhibition profile in 24, 48 and 72h post-treatment in […]
(§3) GA-Hecate toxicity and viral inhibition capacity were evaluated at 24, 48 and 72h post-treatment. Tested concentrations were 1.25; 2.5; 5; 10; 20; and 40 µM. At the end of every incubation, cells were stained using MTT as previously described. Similarly, at every time point, treated cells were lysed using PLB and summited to Luminescence analysis as previously described. […]

[2] = tested on: Huh-7.5 cells harboring SGR-JFH-1 Feo; test: MTT cytotoxicity in hepatocytes; type: cell-based, human; settings: for CC50 (50% cytotoxic concentration): 48 h incubation, SGR-Feo-JFH-1 Huh-7.5 cells, triplicate in three independent assays; for maximum non-toxic (safe) concentration in hepatocytes: arbitrary threshold of 80% cell viability, 48 h
Description: as §1
Peptide cytotoxicity profiles were measured by the MTT [3-(4,5-dimethylthiazol- 2-yl)-2,5-diphenyl tetrazolium bromide] (Sigma–Aldrich) method. Twenty-four hours before treatment, 5 × 10^3 SGR-harboring cell lines (SGR-Feo-JFH-1 or S52/SG-neo) were cultured with supplemented DMEM in a 96-multi-well plate and incubated at 37 °C in a humidified 5% CO2 incubator. On the subsequent day, peptide-containing medium was added at the following final concentrations: 2.5, 5, 10 and 20 μM. The tested peptides were Hecate and its derivatives, which included the following: lysine addition (Lysine-Hecate/Lys-Hecate); one or two molecules of Gallic Acid (GA-Hecate and GA2-Hecate); one acetyl radical (Acetyl-Hecate) or Glutamic acid (Glu-Hecate). After 48 h of incubation, peptide-media was removed, and MTT at a final concentration of 1 mg/mL was added to the wells, incubated for 30 minutes and subsequently replaced by 100 μL of DMSO. Absorbance was measured at 562 nm, using a plate spectrophotometer (FLUOstar Omega/BMG LABTECH, Offenburg, BW, DE). Cell viability was calculated considering water-treated cells (peptides diluent) as a negative control. All experiments were performed in triplicate and in three independent replicates. Further assays were performed considering at least 80% viability of the treated cells.
as §2, §3

| Compound | SI (selectivity index), ratio CC50/EC50 [1] | EC50 [1] [µM] | CC50 (50% cytotoxic concentration) [2] [µM] | maximum non-toxic (safe) concentration in hepatocytes [2] [µM] | inhibition of HCV replication at the maximum safe concentration [1] |
| --- | --- | --- | --- | --- | --- |
| CC(C)C[C@H](NC(=O)[C@H](C)NC(=O)[C@H](CCCCN)NC(=O)[C@H](CCCCN)NC(=O)[C@H](CC(C)C)NC(=O)[C@H](C)NC(=O)[C@H](CCCCN)NC(=O)[C@H](CCCCN)NC(=O)[C@H](CC(C)C)NC(=O)[C@H](CCCCN)NC(=O)[C@H](CCCCN)NC(=O)[C@H](CC(C)C)NC(=O)[C@H](C)NC(=O)[C@H](CCCCN)NC(=O)[C@H](CCCCN)NC(=O)[C@H](CC(C)C)NC(=O)[C@H](C)NC(=O)[C@H](CCCCN)NC(=O)[C@H](CC(C)C)NC(=O)[C@H](C)NC(=O)[C@H](CC(C)C)NC(=O)[C@H](C)NC(=O)[C@H](Cc1ccccc1)NC(=O)[C@@H](N)CCCCN)C(N)=O [Lys-Hecate] | 3.06 | 2.6 | 7.97 | 5 | – |
| H-EFALALKALKKALKKLKKALKKAL-NH2 [Glu-Hecate] | 2.76 | 3.3 | 9.12 | 5 | approximately 65% |
| Ac-FALALKALKKALKKLKKALKKAL-NH2 [Acetyl-Hecate] | – | 3.79 | 9.43 | 5 | approximately 65% |
| FALALKALKKALKKLKKALKKAL-NH2 [Hecate] | 1.42 | 8.57 | 12.17 | 10 | – |
